Values after ≈ are worked out from the molar mass of the structure shown. Where two headings read alike, the source gives them in different places.
How the values were obtained:
C difficile [1] = experiment: Susceptibility testing of C difficile isolates (rifaximin agar dilution, rifampin E strips)
[2] = test system: EAEC strain O42 adherence to HeLa cells; assay type: cell-based, human; details: 24 h pretreatment with 64 mg (FIG. 2: 64 μg/ml), EAEC 3 h
[3] = test system: EAEC strain O42 adherence to HCT-8 cells; assay type: cell-based, human; details: 24 h pretreatment with 64 mg (FIG. 2: 64 μg/ml), EAEC 3 h
ETEC strains = experiment: Isolate viability after rifaximin exposure, ETEC
C difficile [4] = details: cited from earlier work
EAEC = details: previously established in the applicant's laboratory; cited from earlier work
[5] = test system: EAEC strain O42 adherence to A549 cells; assay type: cell-based, human; details: 24 h pretreatment with 64 mg (FIG. 2: 64 μg/ml), EAEC 3 h
S. sonnei on HeLa cells = experiment: S. sonnei adherence and internalization in HeLa cells; assay type: cell-based, human; details: HeLa cells pretreated 24 h
[6] = test system: MMP-9 in S sonnei isolate; experiment: Matrix metalloproteinase-9 detection by gelatin zymography, S sonnei; assay type: cell-based, Shigella sonnei
Procedure: Matrix Metalloproteinase-9 Detection Expression of matrix metalloproteinase-9 (MMP-9) was analyzed using gelatin zymography in all viable EAEC and S. sonnei isolates growing on MacConkey agar. Isolates were suspended in 1 mL of 0.1 M phosphate buffered saline (pH 7.2) and centrifuged at 1000 g for 10 minutes at 4° C. The supernatant was subjected to gelatin zymography to detect MMP-9 activity using a modified Heussen and Dowdle protocol (9). In summary, the supernatant was diluted 1:2 in a sample buffer (125 mM Tris-HCl, pH 6.8, 20% glycerol, 4% sodium dodecyl sulfate, 0.02% bromphenol blue), and 20 μL was loaded on to a 10% SDS-PAGE gel containing 1 mg/mL gelatin. Prestained standard proteins were used as molecular weight markers. After electrophoresis, gels were rinsed with incubation buffer (2.5% triton X-100, 50 mM Tris-HCl, pH 7.4, 0.02% Brij 35, 10 mM CaCl2, 2 μM ZnCl2) for 1 hour at room temperature to remove SDS. Gels were then incubated overnight at 37° C. and subsequently stained with Coomassie brilliant blue R-250 (Thermo Fisher Scientific, Inc, Rockford, Ill.). […] Matrix metalloproteinase-9 was identified among all gelatinolytic proteins by size.

S sonnei isolate = experiment: Isolate viability after rifaximin exposure, S sonnei; assay type: cell-based, Shigella sonnei
[7] = test system: HCT-8 cells infected with rifaximin-exposed EAEC strains; experiment: HCT-8 cell culture assay for interleukin-8 (IL-8) release; assay type: cell-based, human
Procedure: The human intestinal adenocarcinoma cell line, HCT-8, was used to study inflammatory modulators as previously published (Huang, 2004 #15). Monolayers of HCT-8 cells (ATCC CCL-244; American Type Culture Collection, Rockville, Md.) were grown in 24-well culture plates (Corning Costar, Corning, N.Y.) in an RPMI 1640 medium (Sigma-Aldrich Co, St Louis, Mo.) supplemented with 100 U/mL of penicillin, 100 μg/mL of streptomycin, and 0.25 μg/mL of amphotericin B. They were maintained in a medium supplemented with 10% fetal bovine serum (HyClone, Logan, Utah) and grown until approximately 4×10^5 cells/well confluence.
HCT-8 cells were infected with EAEC strains recovered from MacConkey agar in triplicate at a 100:1 ratio in an antibiotic- and serum-free RPMI 1640 medium. Cells were incubated for 3 hours in a humidified chamber at 37° C. in an atmosphere containing 5% CO2, after which supernatants were collected. The supernatant concentration of IL-8 in each well was determined by using a commercially available enzyme-linked immunosorbent assay kit for human IL-8 (R&D Systems, Minneapolis, Minn.). All samples were tested twice, and the average value was reported.

[8] = 201 isolates, Canada, 1992 to 2007

SMILES: CO[C@H]1/C=C/O[C@@]2(C)Oc3c(C)c(O)c4c(O)c(c5c(nc6cc(C)ccn65)c4c3C2=O)NC(=O)/C(C)=C\C=C\[C@H](C)[C@H](O)[C@@H](C)[C@@H](O)[C@@H](C)[C@H](OC(C)=O)[C@@H]1C [Rifaximin, (2S,16Z,18E,20S,21S,22R,23R,24R,25S,26S,27S,28E)-5,6,21,23,25 Pentahydroxy-27-methoxy-2,4,11,16,20,22,24,26-octamethyl-2,7-(epoxypentadeca-(1,11,13)trienimino)benzofuro (4,5-e) pyrido(1,2,-a) benzimidazole-1,15(2H)-dione,25-acetate]
- MIC50 against C difficile (C difficile [1]; 359 isolates): <0.01 µg/mL
- MIC90 against C difficile (C difficile [1]; 359 isolates): 0.25 µg/mL (≈ 0.318 µM)
- MIC50 against C difficile (C difficile [1]; 359 isolates, listed as rifaximin): < 0.01 µg/mL
- Isolates resistant to rifaximin alone (n = 11), (%) (C difficile [1]; genotype A +, B +, BT +, tcdC-del +): (0) %
- Isolates resistant to rifaximin alone (n = 11), (%) (C difficile [1]; genotype A +, B +, BT +, tcdC-del −): (18) %
- Isolates resistant to rifaximin alone (n = 11), (%) (C difficile [1]; genotype A +, B +, BT −, tcdC-del +): (9) %
- Isolates resistant to rifaximin alone (n = 11), (%) (C difficile [1]; genotype A +, B +, BT −, tcdC-del −): (55) %
- Isolates resistant to rifaximin alone (n = 11), (%) (C difficile [1]; genotype A −, B −, BT −, tcdC-del −): (18) %
- EAEC adherence to HeLa cells [2]: significantly reduced
- EAEC adherence to HCT-8 cells [3]: Slightly fewer bacteria adhered to rifaximin-pretreated HCT-8 cells, but this difference was not significant
- ETEC viability after exposure (ETEC strains; rifaximin 8 mg/L, 24-hour exposure): viable
- ETEC viability after exposure (ETEC strains; rifaximin 64 mg/L for 18 hours or 32 and 64 mg/L for 24 hours): No ETEC isolates were viable
- ETEC viability after exposure (ETEC strains; rifaximin 8, 32, and 64 mg/L for 4 and 8 hours, 8 and 32 mg/L for 18 hours): viable
- isolates with MIC values >2 μg/mL (C difficile [4]; 201 C difficile isolates): 4%
- MIC50 against C difficile (C difficile [4]; [8]): 0.008 µg/mL (≈ 0.0102 µM)
- MIC90 against C difficile (C difficile [4]; [8]): 0.015 µg/mL (≈ 0.0191 µM)
- MIC50 for EAEC (EAEC): 64 µg/mL
- EAEC adherence to A549 cells [5]: significantly reduced
- S. sonnei attachment (S. sonnei on HeLa cells): no effect
- S. sonnei internalization (S. sonnei on HeLa cells; gentamicin protection): no effect
- MMP-9 in the S sonnei isolate ([6]; other time points and rifaximin concentrations): either undetectable or the isolate was not viable
- MMP-9 in the S sonnei isolate ([6]; rifaximin 8 mg/L for 4 hours): detectable
- S sonnei viability after exposure (S sonnei isolate; rifaximin 8 mg/L for 4, 8, 18, and 24 hours): viable
- S sonnei viability after exposure (S sonnei isolate; rifaximin 32 or 64 mg/L at any time point): not viable
- IL-8 production from HCT-8 cells infected with rifaximin-exposed EAEC ([7]; EAEC exposed to rifaximin 64 mg/L for 4 hours): caused IL-8 production
- IL-8 production from HCT-8 cells infected with rifaximin-exposed EAEC ([7]; EAEC exposed to rifaximin 8 or 32 mg/L for 4 or 8 hours): elicited production of IL-8
- IL-8 production from HCT-8 cells infected with rifaximin-exposed EAEC ([7]; all other time points and rifaximin concentrations): Interleukin-8 was either undetected following HCT-8 infection with EAEC strains, or EAEC strains were not viable
- IL-8 production from HCT-8 cells infected with rifaximin-exposed EAEC ([7]; viable EAEC exposed to rifaximin 8, 32, or 64 mg/L for 18 hours or 8 mg/L for 24 hours): did not elicit IL-8 production

— patent US20130210852A1, “METHODS FOR TREATING INFECTION” (priority 2010, published 2013)
